Test results as given in patent US20110039905A1, “BENZIMIDAZOLE DERIVATIVES AS CALCIUM CHANNEL BLOCKERS” (priority 2008, published 2011).

What was measured:
isolated mouse hearts = assay: Effect on isolated hearts according to the Langendorff method; conditions: read-out: EC50 (Langendorff experiment)
Procedure: The compounds were tested for their potential to reduce blood pressure and their effect on the contractility of the heart muscle. EC50 values on isolated mouse hearts were determined according to Literature (Doring H J., The isolated perfused heart according to Langendorff technique—function—application, Physiol. Bohemoslov. 1990, 39(6), 481-504; Kligfield P, Horner H, Brachfeld N., A model of graded ischemia in the isolated perfused rat heart, J. Appl. Physiol. 1976 June, 40(6), 1004-8).

human Cav1.2 channel = molecular target: T1, human Cav1.2 channel (Homo sapiens, UniProt Q13936); assay: In vitro assay L channel (FLIPR, KCl-induced calcium fluorescence); type: cell-based; conditions: HEK293 cells expressing human Cav1.2 with β-2a and α2δ-1; 20 mM KCl depolarization; range stated for the group; read-out: IC50 (L channel antagonistic activity)
T1 construct: expressed in transfected cells; host or cells: HEK293
Procedure: The L channel antagonistic activity (IC50 values) of the compounds of formula (I) is determined in accordance with the following experimental method.
Human embryonic kidney (HEK293) cells expressing the human Cav1.2 channel in addition to the auxiliary subunits β-2a and α2δ-1, are grown in culture medium (DMEM containing 10% heat-inactivated fetal calf serum (FCS), 100 U/ml penicillin, 100 μg/ml streptomycin, 100 μg/ml G418, 40 μg/ml zeocin and 100 μg/ml hygromycin). The cells are seeded at 20,000 cells/well into 384-well black clear bottom sterile plates (poly-L-lysine-coated, Becton Dickinson). The seeded plates are incubated overnight at 37° C. in 5% CO2. The KCl solution is prepared as 80 mM stock solution in assay buffer (HBSS containing 0.1% BSA, 20 mM HEPES, 0.375 g/l NaHCO3, adjusted to pH 7.4 with NaOH) for use in the assay at a final concentration of 20 mM. Antagonists are prepared as 10 mM stock solutions in DMSO, then diluted in 384w plates first in DMSO, then in assay buffer to obtain 3× stocks. On the day of the assay, 25 μl of staining buffer (HBSS containing 20 mM HEPES, 0.375 g/l NaHCO3, and 30 μM of the fluorescent calcium indicator fluo-4 AM (1 mM stock solution in DMSO, containing 10% pluronic) is added to each well of the seeded plate. The 384-well cell-plates are incubated for 60 min at 37° C. in 5% CO2 followed by washing with […] using assay buffer leaving […] of this buffer for equilibration at room temperature (30-60 min). Within the Fluorescent Imaging Plate Reader (FLIPR, Molecular Devices), antagonists are added to the plate in a volume of 25 μl/well, incubated for 3 min and finally 25 μl/well of KCl solution is added for cellular depolarization. Fluorescence is measured for each well at 2 second intervals for 8 minutes, and the area under the curve of each fluorescence peak is compared to the area of the fluorescence peak induced by 20 mM KCl with vehicle in place of antagonist. […]

[1] = tested on: human Cav3.1 Cav3.2 or Cav3.3 channel; assay: In vitro assay T channel (FLIPR, Ca2+-induced calcium fluorescence); type: cell-based; conditions: HEK293 cells expressing human Cav3.1, Cav3.2 or Cav3.3; 10 mM Ca2+; subtype not specified in Table 1; read-out: IC50 (T channel antagonistic activity)
Procedure: The T channel antagonistic activity (IC50 values) of the compounds of formula (I) is determined in accordance with the following experimental method and data are shown in Table 1.
Human embryonic kidney (HEK293) cells expressing the human Cav3.1 Cav3.2 or Cav3.3 channel, respectively, are grown in culture medium (DMEM containing 10% heat-inactivated fetal calf serum (FCS), 100 U/ml penicillin, 100 μg/ml streptomycin and 1 mg/ml G418). The cells are seeded at 20,000 cells/well into 384-well black clear bottom sterile plates (poly-L-lysine-coated, Becton Dickinson). The seeded plates are incubated overnight at 37° C. in 5% CO2. […] On the day of the assay, 25 μl of staining buffer (HBSS containing 20 mM HEPES, 0.375 g/l NaHCO3 and 30 μM of the fluorescent calcium indicator fluo-4 AM (1 mM stock solution in DMSO, containing 10% pluronic) is added to each well of the seeded plate. The 384-well cell-plates are incubated for 60 min at 37° C. in 5% CO2 followed by washing with […] using HBSS containing 0.1% BSA, 20 mM HEPES, 0.375 g/l NaHCO3, leaving […] of this buffer for equilibration at room temperature (30-60 min). Within the Fluorescent Imaging Plate Reader (FLIPR, Molecular Devices), antagonists are added to the plate in a volume of […], incubated for 3 min, and finally […] of Ca^2+solution is added. […]

T1 sequence (Q13936 whole entry): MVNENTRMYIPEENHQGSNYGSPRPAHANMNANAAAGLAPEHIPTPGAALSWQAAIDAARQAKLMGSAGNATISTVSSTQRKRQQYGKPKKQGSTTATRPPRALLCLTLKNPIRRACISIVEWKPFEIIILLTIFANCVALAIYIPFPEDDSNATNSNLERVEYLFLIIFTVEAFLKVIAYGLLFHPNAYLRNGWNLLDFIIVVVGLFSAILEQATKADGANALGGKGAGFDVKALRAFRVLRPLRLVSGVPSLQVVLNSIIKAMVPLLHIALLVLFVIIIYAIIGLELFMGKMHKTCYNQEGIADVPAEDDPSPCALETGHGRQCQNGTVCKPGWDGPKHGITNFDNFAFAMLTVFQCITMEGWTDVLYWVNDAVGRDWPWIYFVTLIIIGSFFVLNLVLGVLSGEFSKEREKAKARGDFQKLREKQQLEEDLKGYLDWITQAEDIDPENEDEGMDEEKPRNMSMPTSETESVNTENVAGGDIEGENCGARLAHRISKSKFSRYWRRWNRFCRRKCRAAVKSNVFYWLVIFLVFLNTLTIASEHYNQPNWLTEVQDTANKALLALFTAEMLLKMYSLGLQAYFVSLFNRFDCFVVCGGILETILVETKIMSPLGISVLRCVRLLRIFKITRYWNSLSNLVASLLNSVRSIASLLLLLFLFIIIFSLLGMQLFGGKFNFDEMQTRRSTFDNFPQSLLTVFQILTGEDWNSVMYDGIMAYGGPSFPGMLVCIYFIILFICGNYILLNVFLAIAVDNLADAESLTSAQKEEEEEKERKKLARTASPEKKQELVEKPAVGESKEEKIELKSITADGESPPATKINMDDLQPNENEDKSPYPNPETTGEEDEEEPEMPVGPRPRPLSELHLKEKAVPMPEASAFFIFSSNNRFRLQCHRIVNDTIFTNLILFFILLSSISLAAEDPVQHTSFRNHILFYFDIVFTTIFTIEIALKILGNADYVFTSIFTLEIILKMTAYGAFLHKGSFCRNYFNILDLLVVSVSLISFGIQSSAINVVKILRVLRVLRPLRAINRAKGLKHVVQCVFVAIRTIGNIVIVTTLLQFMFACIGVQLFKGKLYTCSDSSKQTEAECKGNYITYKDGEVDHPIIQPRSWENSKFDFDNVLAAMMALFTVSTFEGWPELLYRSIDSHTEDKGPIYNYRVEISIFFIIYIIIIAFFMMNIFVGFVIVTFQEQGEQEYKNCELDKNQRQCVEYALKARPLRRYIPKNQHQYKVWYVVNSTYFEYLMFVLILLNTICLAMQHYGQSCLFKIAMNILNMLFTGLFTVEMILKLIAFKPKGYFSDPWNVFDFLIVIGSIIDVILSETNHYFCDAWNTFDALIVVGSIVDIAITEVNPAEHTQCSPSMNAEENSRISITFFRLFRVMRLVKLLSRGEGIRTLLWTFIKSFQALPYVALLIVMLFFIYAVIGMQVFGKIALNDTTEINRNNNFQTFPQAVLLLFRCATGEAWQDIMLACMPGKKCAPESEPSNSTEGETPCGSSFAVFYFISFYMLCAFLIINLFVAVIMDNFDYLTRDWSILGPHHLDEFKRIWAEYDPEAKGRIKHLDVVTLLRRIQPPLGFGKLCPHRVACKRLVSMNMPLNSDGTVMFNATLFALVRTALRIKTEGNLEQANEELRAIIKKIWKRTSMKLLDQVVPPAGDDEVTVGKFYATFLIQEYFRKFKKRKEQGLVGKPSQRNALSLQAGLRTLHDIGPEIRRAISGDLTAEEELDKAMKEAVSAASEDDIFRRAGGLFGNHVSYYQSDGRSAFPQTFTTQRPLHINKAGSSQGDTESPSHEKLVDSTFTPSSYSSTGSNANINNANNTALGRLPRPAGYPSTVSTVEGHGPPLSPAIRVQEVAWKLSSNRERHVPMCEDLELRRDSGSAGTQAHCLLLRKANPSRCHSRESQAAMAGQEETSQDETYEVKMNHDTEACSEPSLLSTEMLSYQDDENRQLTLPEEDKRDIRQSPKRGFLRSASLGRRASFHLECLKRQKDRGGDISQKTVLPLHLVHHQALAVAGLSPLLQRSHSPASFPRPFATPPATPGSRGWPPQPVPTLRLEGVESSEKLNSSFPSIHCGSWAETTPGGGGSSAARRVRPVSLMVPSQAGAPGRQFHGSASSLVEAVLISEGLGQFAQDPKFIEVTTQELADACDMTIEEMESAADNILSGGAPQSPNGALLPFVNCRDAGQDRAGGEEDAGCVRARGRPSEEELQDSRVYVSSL

Row | Structure (SMILES) | EC50 (isolated mouse hearts) [nM] | IC50 (human Cav1.2 channel) [nM] | IC50 [1] [nM]
1 | COc1ccc(OC)c2[nH]c(CCCN(C)CC[C@]3(OC(=O)C(C)C)C[C@H]4CC[C@@H]3C=C4c3ccccc3)nc12 (racemic) [Example 1A, rac-Isobutyric acid (1R*,2R*,4R*)-2-(2-{[3-(4,7-dimethoxy-1H-benzoimidazol-2-yl)-propyl]-methyl-amino}-ethyl)-5-phenyl-bicyclo[2.2.2]oct-5-en-2-yl ester] | 5 | 156 to 439 | –
2 | COc1ccc(OC)c2[nH]c(CCCN(C)CC[C@]3(OC(=O)C(C)C)C[C@H]4CCC[C@@H]3C=C4c3ccccc3)nc12 (racemic) [Example 4A, rac-Isobutyric acid (1R*,5R*,6R*)-6-(2-{[3-(4,7-dimethoxy-1H-benzoimidazol-2-yl)-propyl]-methyl-amino}-ethyl)-8-phenyl-bicyclo[3.2.2]non-8-en-6-yl ester] | – | 156 to 439 | –
3 | COc1ccc(OC)c2[nH]c(CCCN(C)CCC3(OC(=O)C(C)C)CC4CCC3C=C4c3ccccc3)nc12 (single isomer, unassigned) [Example 2A, Isobutyric acid (1R,2R,4R)-2-(2-{[3-(4,7-dimethoxy-1H-benzoimidazol-2-yl)-propyl]-methyl-amino}-ethyl)-5-phenyl-bicyclo[2.2.2]oct-5-en-2-yl ester or isobutyric acid (1S,2S,4S)-2-(2-{[3-(4,7-dimethoxy-1H-benzoimidazol-2-yl)-propyl]-methyl-amino}-ethyl)-5-phenyl-bicyclo[2.2.2]oct-5-en-2-yl ester] | – | 156 to 439 | 778
4 | COc1ccc(OC)c2[nH]c(CCCN(C)CCC3(OC(=O)C(C)C)CC4CCC3C=C4c3ccccc3)nc12 (single isomer, unassigned) [Example 3A, Isobutyric acid (1R,2R,4R)-2-(2-{[3-(4,7-dimethoxy-1H-benzoimidazol-2-yl)-propyl]-methyl-amino}-ethyl)-5-phenyl-bicyclo[2.2.2]oct-5-en-2-yl ester or isobutyric acid (1S,2S,4S)-2-(2-{[3-(4,7-dimethoxy-1H-benzoimidazol-2-yl)-propyl]-methyl-amino}-ethyl)-5-phenyl-bicyclo[2.2.2]oct-5-en-2-yl ester] | – | – | 793
